What all share (format): biochemical
The target of test [1] is SIK2 (Homo sapiens, UniProt Q9H0K1). The experiment in a line: Enzymatic activity assay SIK2, RapidFire mass spectrometry (phosphorylation of CHK-peptide). The following applies: RapidFire MS, inhibition of SIK2; read-out: SIK2 RF IC50. The procedure, abridged:
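Read-out is the summed phospho-species fraction of CHK-peptide by RapidFire mass spectrometry, normalized between DMSO and 1 μM YKL-05-099. The reaction used 0.5 nM SIK2, 100 μM ATP and 10 μM peptide solutions in HEPES pH 7.0/10 mM magnesium acetate for 45 min at ambient temperature.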

In test [2] the target is SIK1 (Homo sapiens, UniProt P57059). The test is described as follows: Enzymatic activity assay SIK1, RapidFire mass spectrometry (phosphorylation of CHK-peptide). The following applies: RapidFire MS, inhibition of SIK1; read-out: SIK1 RF IC50. The procedure, abridged: (§1)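 Human SIK1/2/3, 5/0.5/1.5 nM; 12.5 mM HEPES pH 7.0, 10 mM Mg acetate, 0.005% BSA. 30 min cpd pre-inc, + CHK-peptide (10 μM soln) + ATP (100 μM soln), 45 min RT. Formic acid stop; RF-MS phospho ratio; IC50.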
Chain of SIK1 (P57059 whole entry): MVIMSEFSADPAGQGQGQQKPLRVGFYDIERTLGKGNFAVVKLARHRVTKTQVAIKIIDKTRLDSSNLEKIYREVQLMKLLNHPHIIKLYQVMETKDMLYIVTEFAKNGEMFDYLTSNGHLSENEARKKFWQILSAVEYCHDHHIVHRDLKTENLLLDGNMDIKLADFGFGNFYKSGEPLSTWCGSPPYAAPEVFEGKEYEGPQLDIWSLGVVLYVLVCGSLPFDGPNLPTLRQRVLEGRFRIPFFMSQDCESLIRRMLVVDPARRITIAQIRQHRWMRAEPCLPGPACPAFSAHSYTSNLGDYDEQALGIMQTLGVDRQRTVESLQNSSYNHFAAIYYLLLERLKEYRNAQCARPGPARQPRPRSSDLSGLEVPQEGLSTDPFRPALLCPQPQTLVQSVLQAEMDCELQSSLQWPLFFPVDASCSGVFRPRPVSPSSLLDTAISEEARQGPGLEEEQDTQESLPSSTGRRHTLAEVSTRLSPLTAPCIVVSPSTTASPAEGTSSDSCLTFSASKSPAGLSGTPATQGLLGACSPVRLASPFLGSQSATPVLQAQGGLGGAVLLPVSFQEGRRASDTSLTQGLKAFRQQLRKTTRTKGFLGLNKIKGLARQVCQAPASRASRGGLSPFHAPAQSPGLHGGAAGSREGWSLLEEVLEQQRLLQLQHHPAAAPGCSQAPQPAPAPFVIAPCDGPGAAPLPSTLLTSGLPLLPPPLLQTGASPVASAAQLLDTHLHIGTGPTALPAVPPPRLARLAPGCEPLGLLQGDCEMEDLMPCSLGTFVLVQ

Test [3] addresses SIK3 (Homo sapiens, UniProt Q9Y2K2). The test is described as follows: Enzymatic activity assay SIK3, RapidFire mass spectrometry (phosphorylation of CHK-peptide). The following applies: RapidFire MS, inhibition of SIK3; read-out: SIK3 RF IC50. The procedure, abridged: as §1

For orientation: pIC50 means the IC50 on a negative log10 scale, so that one unit is a factor of ten.

pIC50: −log10 of the molar value.

Chain of SIK3 (Q9Y2K2 whole entry): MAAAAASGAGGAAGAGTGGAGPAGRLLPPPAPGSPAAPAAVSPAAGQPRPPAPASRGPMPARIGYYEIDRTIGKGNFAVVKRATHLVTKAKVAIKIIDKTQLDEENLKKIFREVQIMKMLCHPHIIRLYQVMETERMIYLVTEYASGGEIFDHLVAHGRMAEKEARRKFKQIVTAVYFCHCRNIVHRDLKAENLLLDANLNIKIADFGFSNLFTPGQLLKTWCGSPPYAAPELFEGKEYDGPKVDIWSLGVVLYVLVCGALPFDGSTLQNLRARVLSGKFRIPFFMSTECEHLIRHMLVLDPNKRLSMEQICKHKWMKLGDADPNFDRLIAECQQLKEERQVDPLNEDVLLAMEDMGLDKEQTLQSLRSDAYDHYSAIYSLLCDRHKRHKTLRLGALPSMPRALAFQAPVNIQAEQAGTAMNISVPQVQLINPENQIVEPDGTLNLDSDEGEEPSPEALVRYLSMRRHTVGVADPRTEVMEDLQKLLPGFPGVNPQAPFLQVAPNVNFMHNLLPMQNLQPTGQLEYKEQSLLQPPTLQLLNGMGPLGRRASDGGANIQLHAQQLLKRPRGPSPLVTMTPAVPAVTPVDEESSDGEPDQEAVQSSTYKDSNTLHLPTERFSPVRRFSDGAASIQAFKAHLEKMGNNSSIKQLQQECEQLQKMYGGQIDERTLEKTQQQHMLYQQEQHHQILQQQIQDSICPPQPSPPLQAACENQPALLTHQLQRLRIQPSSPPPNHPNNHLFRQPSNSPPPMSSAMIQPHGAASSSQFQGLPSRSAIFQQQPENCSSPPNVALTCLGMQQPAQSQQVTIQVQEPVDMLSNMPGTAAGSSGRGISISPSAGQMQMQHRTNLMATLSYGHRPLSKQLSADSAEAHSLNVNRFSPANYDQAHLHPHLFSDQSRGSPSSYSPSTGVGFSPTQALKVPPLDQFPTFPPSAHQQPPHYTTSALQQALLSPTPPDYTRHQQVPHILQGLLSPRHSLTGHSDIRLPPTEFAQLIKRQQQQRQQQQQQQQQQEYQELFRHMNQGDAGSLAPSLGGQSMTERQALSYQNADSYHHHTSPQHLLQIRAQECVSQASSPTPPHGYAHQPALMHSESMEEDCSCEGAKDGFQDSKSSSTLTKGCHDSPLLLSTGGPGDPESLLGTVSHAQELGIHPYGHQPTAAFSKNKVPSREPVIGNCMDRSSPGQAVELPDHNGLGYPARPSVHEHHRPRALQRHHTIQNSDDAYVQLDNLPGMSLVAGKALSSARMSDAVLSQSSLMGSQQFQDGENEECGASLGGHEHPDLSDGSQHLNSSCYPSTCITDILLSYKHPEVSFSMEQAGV
Chain of SIK2 (Q9H0K1 whole entry): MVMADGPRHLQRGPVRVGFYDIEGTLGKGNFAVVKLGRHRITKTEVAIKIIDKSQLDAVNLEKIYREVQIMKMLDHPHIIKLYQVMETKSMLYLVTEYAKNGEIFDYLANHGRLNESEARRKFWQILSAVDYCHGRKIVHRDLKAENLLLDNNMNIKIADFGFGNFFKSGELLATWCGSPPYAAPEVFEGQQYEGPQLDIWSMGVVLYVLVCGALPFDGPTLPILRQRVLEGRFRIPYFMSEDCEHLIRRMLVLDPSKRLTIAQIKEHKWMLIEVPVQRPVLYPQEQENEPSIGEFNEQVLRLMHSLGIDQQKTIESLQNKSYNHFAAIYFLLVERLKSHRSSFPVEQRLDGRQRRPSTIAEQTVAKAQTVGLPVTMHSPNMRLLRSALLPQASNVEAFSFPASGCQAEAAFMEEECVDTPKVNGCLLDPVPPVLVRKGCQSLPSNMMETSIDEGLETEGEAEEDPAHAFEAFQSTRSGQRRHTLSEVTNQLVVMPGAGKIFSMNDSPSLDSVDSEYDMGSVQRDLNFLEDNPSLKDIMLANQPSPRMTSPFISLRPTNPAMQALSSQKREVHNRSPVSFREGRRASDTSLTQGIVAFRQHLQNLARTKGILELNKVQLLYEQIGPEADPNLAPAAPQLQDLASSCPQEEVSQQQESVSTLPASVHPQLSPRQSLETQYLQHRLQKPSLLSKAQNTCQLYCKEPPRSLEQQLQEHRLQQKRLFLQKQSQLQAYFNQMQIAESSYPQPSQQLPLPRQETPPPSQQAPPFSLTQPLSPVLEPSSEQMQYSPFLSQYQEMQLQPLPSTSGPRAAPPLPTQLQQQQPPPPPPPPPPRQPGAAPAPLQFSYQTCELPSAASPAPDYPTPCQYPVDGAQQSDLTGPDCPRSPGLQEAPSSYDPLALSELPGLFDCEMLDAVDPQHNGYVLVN

As to `Cc1ccc(Nc2cc3ncn(-c4ccc(C(C)O)c(-n5nc(C(F)F)cc5C(F)F)n4)c3cc2F)nn1` (stereo not drawn) [Example 387, 1-[2-[3,5-bis(difluoromethyl)pyrazol-1-yl]-6-[6-fluoro-5-[(6-methylpyridazin-3-yl)amino]benzimidazol-1-yl]-3-pyridyl]ethanol], the pIC50 in test [1] was 8.64; in test [2], 6.34; in test [3], 8.74.

For `Cc1ccc(Nc2cc3ncn(-c4ccc(CO)c(-n5nc(C(F)F)cc5C)n4)c3cc2F)nn1` [Example 319, [2-[3-(difluoromethyl)-5-methyl-pyrazol-1-yl]-6-[6-fluoro-5-[(6-methylpyridazin-3-yl)amino]benzimidazol-1-yl]-3-pyridyl]methanol], the values for the pIC50 in test [1], in test [2] and in test [3] were 8.17, 5.67 and 8.15, respectively.

In the case of `Cc1ccc(Nc2ccc3c(c2)ncn3-c2ccc(C(C)O)c(-c3cnn(CC(C)(F)F)c3C)n2)nn1` (stereo not drawn) [Example 284, 1-[2-[1-(2,2-difluoropropyl)-5-methyl-pyrazol-4-yl]-6-[5-[(6-methylpyridazin-3-yl)amino]benzimidazol-1-yl]-3-pyridyl]ethanol], the pIC50 in test [1] is 8.68; in test [2], 6.78; in test [3] it was 8.72.

For the compound `Cc1cnc(Nc2ccc3c(c2)ncn3-c2ccc(C(C)O)c(-n3nc(C#N)cc3C)n2)nc1` (stereo not drawn) [Example 83, 1-[3-(1-Hydroxyethyl)-6-[5-[(5-methylpyrimidin-2-yl)amino]benzimidazol-1-yl]-2-pyridyl]-5-methyl-pyrazole-3-carbonitrile], the pIC50 was 8.82 in test [1], 8.70 in test [2] and 8.74 in test [3].

With `Cc1cc(C#N)nn1-c1nc(-n2cnc3ccc(NC(=O)C4CC4)cc32)ccc1C(C)O` (stereo not drawn) [Example 328, N-[3-[6-(3-cyano-5-methyl-pyrazol-1-yl)-5-(1-hydroxyethyl)-2-pyridyl]benzimidazol-5-yl]cyclopropanecarboxamide], the pIC50 in test [1] was 7.18; in test [2], 6.90; in test [3], 7.44.

Turning to `Cc1ccc(Nc2ccc3c(c2)ncn3-c2ccc(C(C)O)c(-c3nn(C(F)F)cc3C)n2)nn1` (stereo not drawn) [Example 363, 1-[2-[1-(difluoromethyl)-4-methyl-pyrazol-3-yl]-6-[5-[(6-methylpyridazin-3-yl)amino]benzimidazol-1-yl]-3-pyridyl]ethanol], the negative-log IC50 (pIC50) in test [1] is 8.92; in test [2], 6.82; in test [3], 9.00.

In the case of `COc1cc2ncn(-c3ccc(CO)c(-c4cccc(Cl)c4)n3)c2cc1OC` [Example 1, (2-(3-chlorophenyl)-6-(5,6-dimethoxy-1H-benzo[d]imidazol-1-yl)pyridin-3-yl)methanol], the pIC50 in test [1] is 6.98; in test [2], 6.82; in test [3], 6.45.

For `Cc1ccc(Nc2ccc3c(c2)ncn3-c2ccc(C(C)O)c(-n3nc(C#N)cc3C)n2)nc1` (stereo not drawn) [Example 84, 1-[3-(1-hydroxyethyl)-6-[5-[(5-methyl-2-pyridyl)amino]benzimidazol-1-yl]-2-pyridyl]-5-methyl-pyrazole-3-carbonitrile], the pIC50 in test [1] is 8.28; in test [2], 8.15; in test [3], 8.68.

On to `Cc1ccc(Nc2cc3c(cc2OCCN2CCOCC2)ncn3-c2ccc(C(C)O)c(-n3nc(C#N)cc3C)n2)cn1` (stereo not drawn) [Example 294, 1-[3-(1-hydroxyethyl)-6-[6-[(6-methyl-3-pyridyl)amino]-5-(2-morpholinoethoxy)benzimidazol-1-yl]-2-pyridyl]-5-methyl-pyrazole-3-carbonitrile], for which the figures for the pIC50 in test [1], in test [2] and in test [3] were 9.52, 8.70 and 8.52, respectively.

Consider `Cc1ccc(Nc2cc3ncn(-c4ccc(C(C)O)c(-c5cn(CC(F)(F)F)nc5C)n4)c3cc2F)nn1` (stereo not drawn) [Example 302, 1-[6-[6-fluoro-5-[(6-methylpyridazin-3-yl)amino]benzimidazol-1-yl]-2-[3-methyl-1-(2,2,2-trifluoroethyl)pyrazol-4-yl]-3-pyridyl]ethanol], for which the pIC50 was 9.15 in test [1], 6.39 in test [2] and 8.96 in test [3].

For `Cc1ccc(Nc2ccc3c(c2)ncn3-c2ccc(C(C)O)c(N3CCOC(C(F)(F)F)C3)n2)nn1` (stereo not drawn) [Example 320, 1-[6-[5-[(6-methylpyridazin-3-yl)amino]benzimidazol-1-yl]-2-[2-(trifluoromethyl)morpholin-4-yl]-3-pyridyl]ethanol], the negative-log IC50 (pIC50) in test [1] is 7.19; in test [2], 5.31; in test [3], 8.02.

Source of the values: patent publication US20240383875A1, “Benzimidazole Pyridine Derivatives” (Hoffmann-La Roche Inc., priority 2022, published 2024).
